The record followed here is EP2070549A1, “THERAPEUTIC AGENT FOR ACCELERATION OF SPINAL NERVE REPAIR COMPRISING DESACYL GHRELIN OR DERIVATIVE THEREOF AS ACTIVE INGREDIENT” (University of Miyazaki, priority 2006, dated 2008).

Test [1] deals with des-acyl ghrelin specific binding sites in membrane fractions of rat fetal spinal cord (rat). Description: competition with 0.1 nM [125I]-des-acyl ghrelin on rat fetal spinal cord membranes.
Test [2] deals with des-acyl ghrelin specific binding sites in the membrane fractions of fetal spinal cord. Description: Binding of [125I]-labelled des-acyl ghrelin to membrane fractions of fetal spinal cord (saturation and competition). The arrangement: species or system rat. The settings on record: competition with 0.1 nM labeled des-acyl ghrelin. How it is done: For instance, the identity of a substance that acts on a des-acyl ghrelin specific binding site, namely, the identity of a substance having binding activity for a des-acyl ghrelin specific binding site can be determined, as will be described later in Example 1, by first preparing samples from a tissue of interest (e.g., membrane fractions prepared from an extracted spinal cord tissue), then incubating the sample in the presence of a test substance, with or without an added radioactive ligand such as [^125I]-labeled des-acyl ghrelin, measuring the radioactivity of the samples, and analyzing the values obtained. For analysis of the values, techniques known to skilled artisans may be employed, as exemplified by the method of Scatchard and a program such as GraphPAD Prism 4 program, which are applied to calculate the maximum number of binding sites (Bmax) and the dissociation constant (Kd). The des-acyl ghrelin specific binding sites are yet to be characterized specifically but one place of their occurrence is in rat spinal cord cells, in particular, on rat spinal cord cell membranes. […]
With [^125I]-labelled des-acyl ghrelin used as a radioactive ligand, the binding of des-acyl ghrelin to the tissue membranes of fetal spinal cord was studied. […] The radioactivity of the membranes on the filters was measured with a gamma counter. […]

Test [3] concerns rat models with injured spinal cord. Description: Grafting of spinal neuronal cells and local administration of des-acyl ghrelin to rat models with injured spinal cord, frequency of standing up. The class given is in vivo. The following applies: for frequency of a rat standing up per unit time: 3-minute observation. How it is done: In accordance with the procedure described in Morino, T. et al, Neuroscience Research, 2003, vol. 46, pp 309-318, the grafting of spinal neuronal cells and local administration of des-acyl ghrelin to rat models with injured spinal cord were assessed. Male SD rats (8 to 9 weeks old) were anesthetized with pentobarbital and incised in the back to expose a vertebra ([…]). After excising the vertebral arch, a dental drill was used to open a window with a diameter of […], and a stainless steel needle with a silicone rubber fixed thereto was applied vertically, followed by loading of the top with a 20-g weight. Following a compression time of 30 minutes, a damaging drop equivalent to a weight of about 100 g was finally applied from above to construct models suffering a movement disorder in the lower limbs. The animals were divided into three groups: 1) a group under sham operation; 2) a control group with injured spinal cord; and 3) a group with injured spinal cord, treated by cell grafting, and locally administered with des-acyl ghrelin. The group under sham operation received laminectomy but was simply sutured in the muscle and skin thereafter. After injuring the spinal cord, cultured spinal neuronal cells (10^5 cells/25 µL) were grafted subdurally. Rat des-acyl ghrelin was administered subdurally in an amount of 1 nmol together with the cells.
Twenty-four hours after the operation, the rats were transferred into a see-through cage and observed for the frequency of their standing up (by 3-minute observation). The principal item of observation was the frequency per unit time of the rat standing up (in such a posture that it lifted the upper limbs and supported the body weight only with the lower limbs) was counted to assess the function of its hind limbs.

The test system of test [4] is cultured fetal spinal neuronal cells. As to the kind of experiment: BrdU incorporation into cultured fetal spinal neuronal cells, Cell Proliferation ELISA (Example 2). It is filed as cell-based, rat. The settings on record: 0.03-300 nM tested, 12 hours, then BrdU 6 hours; FIG. 2A. How it is done: • (1) Embryos were extracted from a pregnant Wistar rat at day 17 under anesthesia. Spinal cords were collected from these embryos and subjected to papain digestion in Hank's balanced salt solution; as a result of subsequent mechanical separation by pipetting, a dispersion of fetal spinal neurons was obtained. […] These dispersed cells were suspended in a DMEM medium containing NaHCO3, 5% fetal bovine serum, penicillin (100 U/mL) and streptomycin (100 µg/mL), followed by plating onto laminin-coated 96-well multi-plates at 10^5 cells per well. After incubation for 4 days, des-acyl ghrelin (0.03-300 nM) was added to the culture and incubation was conducted for 12 hours; then, 5-bromo-2'-deoxyuridine (BrdU) ([…]) was added and incubation was conducted for an additional 6 hours; then, the des-acyl ghrelin was investigated for its action on BrdU incorporation.
• (2) After the end of the above incubation, the cells were recovered and using Cell Proliferation ELISA Kit (Roche Diagnostic GmbH, Mannheim, Germany), the amount of BrdU incorporation into the fetal spinal neuronal cells was measured to investigate the action for proliferating the spinal neuronal cells.
On the technique in general: Incorporation of labelled thymidine or its analogues reports DNA synthesis.

Test [5] shares this test system. Description: BrdU positive cells by anti-BrdU immunostaining in cultured fetal spinal neuronal cells (Example 2). The settings on record: compared to physiological saline, FIG. 2B, 2C. It is filed as cell-based, rat. How it is done: • (1) Embryos were extracted from a pregnant Wistar rat at day 17 under anesthesia. Spinal cords were collected from these embryos and subjected to papain digestion in Hank's balanced salt solution; as a result of subsequent mechanical separation by pipetting, a dispersion of fetal spinal neurons was obtained. […] These dispersed cells were suspended in a DMEM medium containing NaHCO3, 5% fetal bovine serum, penicillin (100 U/mL) and streptomycin (100 µg/mL), followed by plating onto laminin-coated 96-well multi-plates at 10^5 cells per well. […]
• (3) After the end of the above incubation (1), the cells were fixed with methanol and glacial acetic acid, had their DNA denatured with 2 N HCl; thereafter, the BrdU incorporated into the cells was measured by detecting the BrdU positive cells using a rat anti-BrdU monoclonal antibody (1:1000, Abcam, Cambridge, UK) as a primary antibody, and also using Cy™ 3-conjugated donkey anti-rat IgG polyclonal antibody (1:1000, Jackson ImmunoResearch Laboratories, Inc., PA, USA) as a secondary antibody, in order to investigate the action for proliferating spinal cord cells. […]

In test [6] the test system is cultured spinal neuronal cells. Description: BrdU incorporation into cultured spinal neuronal cells, Cell Proliferation ELISA (Example 3). The following applies: for BrdU incorporation into the cells, Mean: n 6, Control = 100.0. The class given is cell-based, rat. The text has this: Embryos were extracted from a pregnant Wistar rat at day 16 by opening the abdomen under anesthesia. Spinal cords were collected from these embryos and subjected to papain digestion in Hank's balanced salt solution; as a result of subsequent mechanical separation by pipetting, a dispersion of fetal spinal nerve cells was obtained. After being filtered and centrifuged, the dispersed cells were suspended in a DMEM medium containing NaHCO3, 5% fetal bovine serum, penicillin (100 U/mL) and streptomycin (100 µg/mL), followed by plating onto laminin-coated 96-well multi-plates at 10^5 cells per well. After incubation for 4 days, 5-bromo-2'-deoxyuridine (BrdU) (10 µM) was added and incubation was conducted for 6 hours; further, rat des-acyl ghrelin, des-acyl ghrelin(1-5)-NH2 (GSSFL-NH2, SEQ ID NO:22), des-acyl ghrelin(1-7)-NH2 (GSSFLSP-NH2, SEQ ID NO:23) or des-acyl ghrelin(1-15)-NH2 (GSSFLSPEHQRVQQR-NH2, SEQ ID NO:24) was added in amounts of 0.03 - 3 nM and incubation was conducted for 12 hours before investigating the action of des-acyl ghrelin and its derivatives on BrdU incorporation.
After the end of incubation, the cells were recovered and using Cell Proliferation ELISA Kit (Roche Diagnostic GmbH, Mannheim, Germany), the amount of BrdU incorporation into the cells was measured to investigate the action for proliferating the spinal neuronal cells.

The target of test [7] is des-acyl ghrelin specific binding sites in membrane fractions of rat fetal spinal cord (rat). Description: saturation radioligand binding, rat fetal spinal cord membranes, Scatchard/GraphPAD Prism.

On to unlabelled des-acyl ghrelin (peptide), for which, in test [1], the IC50 – broadly, the point on the concentration scale where inhibition reaches its midpoint – turned out to be 23.5 nM.
For Des-acyl ghrelin, the “concentrations at which the binding of the labeled des-acyl ghrelin was displaced” value in test [2] is ≥ 10^-3 M. Moreover, in test [2] (4 °C for an hour), the IC50 is 23.5 nM. In addition, the “frequency of a rat standing up per unit time” value in test [3] (24 hours after operation, 1 nmol subdurally together with grafted cells (10^5 cells/25 µL)) worked out at 8.0 ± 0.0; in test [3] (Initial (before operation)), 15.0 ± 2.0. Moreover, in test [3] (combination of cell grafting and local administration, 24 hours after operation), the “frequency of standing up (in words)” value is listed as “recovery”. For the same substance, in test [4], the “concentration that could increase the BrdU incorporation into the cells” value is reported as at least 3 nM. In addition, in test [5], the BrdU incorporation result is “increased”. Also, the “number of cells that incorporated BrdU” value in test [5] is given as “increased”. Also, the “BrdU incorporation into the cells (in words)” value in test [6] (0.03 to 3 nM) is “increased”. For the same substance, the results for the “BrdU incorporation into the cells, Mean” value in test [6] (Concentration 0.03 nM), in test [6] (Concentration 0.3 nM) and in test [6] (Concentration 3 nM) were 113.6, 112.6 and 108.2, respectively.
As for “[^125I]-labelled des-acyl ghrelin (peptide)”, the Bmax (fmol/mg protein) in test [7] came to 8.79.
